One assay has as its system HAP1 MTAP-deleted. Nature of the assay: SDMA in-cell western assay, HAP1 MTAP-deleted cell line. It is filed as cell-based. Conditions: for IC50: Homo sapiens, HAP1 MTAP-deleted cell line; for MTAP Intact/Deleted Ratio: IC50 ratio HAP1 MTAP-intact / HAP1 MTAP-deleted. The method in brief: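 Readout is cellular SDMA signal by in-cell western, with IC50 values derived from it. The cells are MTAP-null HAP1, matched to an isogenic MTAP-intact HAP1 line.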

The next assay concerns HAP1 MTAP-intact. Briefly: SDMA in-cell western assay, HAP1 MTAP-intact cell line. Format: cell-based. The settings on record: Homo sapiens. The essentials: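 IC50 values come from SDMA in-cell western staining of HAP1 cells. The MTAP-intact line carries endogenous MTAP, while its MTAP-deleted counterpart lacks MTAP entirely. A selectivity ratio of at least 3 fold marks a compound as MTAP-selective.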

Assay [1] addresses T1, PRMT5 (Homo sapiens, UniProt O14744).
T1 construct: purchased Viva (custom protein)
Nature of the assay: PRMT5 IC50 assay in the presence of MTA as cofactor. Format: biochemical. The settings on record: for IC50: PRMT5, MTA as cofactor. The essentials:
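IC50 values were measured against human PRMT5 with SAM, with MTA, or with no cofactor. Ki was derived from IC50 as Ki=IC50/1.5 with SAM and Ki=IC50/13.5 with MTA, and the Ki(SAM)/Ki(MTA) ratio was then taken.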

The target of assay [2] is T1, PRMT5. Briefly: PRMT5 IC50 assay with no cofactor. Format: biochemical. The method in brief:
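Values reflect IC50 (μM) on human PRMT5 under three cofactor states. Selectivity is derived as the quotient of SAM-state Ki over MTA-state Ki, with each Ki obtained from its IC50.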

Assay [3] deals with T1, PRMT5. Briefly: PRMT5 IC50 assay in the presence of SAM as cofactor. It is filed as biochemical. The essentials: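 MTA-dependent versus SAM-dependent inhibition of human PRMT5 was assessed by IC50; conversion factors of 13.5 and 1.5 gave the corresponding Ki.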
[4] abbreviates: ratio between Ki in the presence of SAM and Ki in the presence of MTA.
The mark [5] stands for this setting: ratio between the Ki in the presence of SAM and the Ki in the presence of MTA.

The term IC50 denotes the concentration needed to halve the response being measured.

T1 sequence (O14744 whole entry): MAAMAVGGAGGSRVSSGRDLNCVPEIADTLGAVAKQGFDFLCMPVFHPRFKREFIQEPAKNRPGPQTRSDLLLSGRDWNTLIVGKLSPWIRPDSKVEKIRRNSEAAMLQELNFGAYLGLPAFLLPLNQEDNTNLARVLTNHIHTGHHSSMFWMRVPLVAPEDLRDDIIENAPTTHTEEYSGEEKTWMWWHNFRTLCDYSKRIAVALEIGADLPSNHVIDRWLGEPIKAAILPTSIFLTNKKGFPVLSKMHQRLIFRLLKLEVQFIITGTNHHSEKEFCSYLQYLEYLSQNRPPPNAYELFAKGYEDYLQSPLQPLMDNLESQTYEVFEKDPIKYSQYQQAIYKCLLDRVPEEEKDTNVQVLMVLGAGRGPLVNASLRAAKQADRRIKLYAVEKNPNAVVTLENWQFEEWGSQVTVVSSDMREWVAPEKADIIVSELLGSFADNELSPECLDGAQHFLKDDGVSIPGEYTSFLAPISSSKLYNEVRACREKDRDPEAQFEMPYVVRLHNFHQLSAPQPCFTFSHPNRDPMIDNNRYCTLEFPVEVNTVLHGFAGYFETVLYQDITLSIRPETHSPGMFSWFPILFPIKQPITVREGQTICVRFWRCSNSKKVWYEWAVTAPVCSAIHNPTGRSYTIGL
T1 sequence (Q9BQA1 whole entry partner): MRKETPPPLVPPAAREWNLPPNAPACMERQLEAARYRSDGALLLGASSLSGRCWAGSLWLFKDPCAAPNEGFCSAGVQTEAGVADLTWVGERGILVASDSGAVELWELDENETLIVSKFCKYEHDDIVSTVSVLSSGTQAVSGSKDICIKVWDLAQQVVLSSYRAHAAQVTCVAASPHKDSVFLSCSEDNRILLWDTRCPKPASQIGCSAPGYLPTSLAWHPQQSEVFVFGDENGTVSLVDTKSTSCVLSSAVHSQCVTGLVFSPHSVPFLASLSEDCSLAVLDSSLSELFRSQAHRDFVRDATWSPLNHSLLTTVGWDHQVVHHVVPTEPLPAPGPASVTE

As for `Cc1ncoc1COc1ccc2c(c1C)CCN(C[C@@H](O)CNC(=O)c1ccnc(NC3CCCC3)c1)C2` [Compound 418, 2-(cyclopentylamino)-N-[(2S)-2-hydroxy-3-{5-methyl-6-[(4-methyl-1,3-oxazol-5-yl)methoxy]-1,2,3,4-tetrahydroisoquinolin-2-yl}propyl]pyridine-4-carboxamide], the IC50 is 1000 to 10000 nM with HAP1 MTAP-deleted; at least 10000 nM in the assay on HAP1 MTAP-intact; 50 to 500 nM on PRMT5 [1]; at least 5000 nM on PRMT5 [2] (read-out: No Co-factor IC50); 50 to 500 nM at PRMT5 [3]. Besides, in the assay on HAP1 MTAP-deleted, the “MTAP Intact/Deleted Ratio” value is “C* (an IC50 ratio of less than 3 fold between the IC50 in the HAP1 MTAP-intact cell line and the HAP1 MTAP-deleted cell line)”. At PRMT5 [1] (setting [4]), the “SAM/MTA Ratio” value is “A (a Ki ratio greater than or equal to 10 fold between the Ki in the presence of SAM and the Ki in the presence of MTA)”.

For the compound `CN1CCN(c2cc(C(=O)NC[C@H](O)CN3CCc4c(ccc(OCc5cnco5)c4Cl)C3)cc(NC3CCC3)n2)CC1` [Compound 419, (S)—N-(3-(5-chloro-6-(oxazol-5-ylmethoxy)-3N-dihydroisoquinolin-2(1H)-yl)-2-hydroxypropyl)-2-(cyclobutylamino)-6-(4-methylpiperazin-1-yl)isonicotinamide], the IC50 is at least 10000 nM in the assay with HAP1 MTAP-deleted; at least 10000 nM with HAP1 MTAP-intact; 50 to 500 nM on PRMT5 [1]; 500 to 5000 nM at PRMT5 [2] (read-out: No Co-factor IC50); 50 to 500 nM at PRMT5 [3]. The “MTAP Intact/Deleted Ratio” value with HAP1 MTAP-deleted is “C* (an IC50 ratio of less than 3 fold between the IC50 in the HAP1 MTAP-intact cell line and the HAP1 MTAP-deleted cell line)”. Besides, on PRMT5 [1] (setting [4]), the “SAM/MTA Ratio” value was “A (a Ki ratio greater than or equal to 10 fold between the Ki in the presence of SAM and the Ki in the presence of MTA)”.

For `O=C(NC[C@H](O)CN1CCc2c(ccc(OCc3cnco3)c2Cl)C1)c1ccnc(NC2CCCCC2)c1` [Compound 420, (S)—N-(3-(5-chloro-6-(oxazol-5-ylmethoxy)-3N-dihydroisoquinolin-2(1H)-yl)-2-hydroxypropyl)-2-(cyclohexylamino)isonicotinamide], the half-inhibitory concentration (IC50) was at least 10000 nM with HAP1 MTAP-deleted; at least 10000 nM with HAP1 MTAP-intact; 50 to 500 nM on PRMT5 [1]; 500 to 5000 nM at PRMT5 [2] (read-out: No Co-factor IC50); 50 to 500 nM at PRMT5 [3]. The “MTAP Intact/Deleted Ratio” value in the assay with HAP1 MTAP-deleted was “C* (an IC50 ratio of less than 3 fold between the IC50 in the HAP1 MTAP-intact cell line and the HAP1 MTAP-deleted cell line)”. Besides, at PRMT5 [1] (setting [4]), the “SAM/MTA Ratio” value is “A (a Ki ratio greater than or equal to 10 fold between the Ki in the presence of SAM and the Ki in the presence of MTA)”.

With `Cc1ncoc1COc1ccc2c(c1C)CCN(C[C@@H](O)CNC(=O)c1cc(NC3COC3)nc(N3CCN(C(=O)C(C)C)CC3)n1)C2` [Compound 421, N-[(2S)-2-hydroxy-3-{5-methyl-6-[(4-methyl-1,3-oxazol-5-yl)methoxy]-1,2,3,4-tetrahydroisoquinolin-2-yl}propyl]-2-[4-(2-methylpropanoyl)piperazin-1-yl]-6-[(oxetan-3-yl)amino]pyrimidine-4-carboxamide], the concentration for half-maximal inhibition (IC50) was 1000 to 10000 nM in the assay with HAP1 MTAP-deleted; at least 10000 nM in the assay with HAP1 MTAP-intact; 50 to 500 nM on PRMT5 [1]; at least 5000 nM on PRMT5 [2] (read-out: No Co-factor IC50); 50 to 500 nM at PRMT5 [3]. The “MTAP Intact/Deleted Ratio” value with HAP1 MTAP-deleted was “B* (an IC50 ratio greater than or equal to 3 fold but lower than 10 fold between the IC50 in the HAP1 MTAP-intact cell line and the HAP1 MTAP-deleted cell line)”. Besides, the “SAM/MTA Ratio” value on PRMT5 [1] (setting [4]) was “A (a Ki ratio greater than or equal to 10 fold between the Ki in the presence of SAM and the Ki in the presence of MTA)”.

On to `O=C(NC[C@H](O)CN1CCc2cc(OCc3cnco3)ccc2C1)c1cc(NC2CCC2)nc(N2CCNCC2)c1` [Compound 422], for which the 50% inhibitory concentration (IC50) was in the range of 1000 to 10000 nM in the assay with HAP1 MTAP-deleted; 1000 to 10000 nM in the assay with HAP1 MTAP-intact; 50 to 500 nM at PRMT5 [1]; 500 to 5000 nM at PRMT5 [2] (read-out: No Co-factor IC50); 50 to 500 nM on PRMT5 [3]. Also, the “MTAP Intact/Deleted Ratio” value in the assay on HAP1 MTAP-deleted is “C* (an IC50 ratio of less than 3 fold between the IC50 in the HAP1 MTAP-intact cell line and the HAP1 MTAP-deleted cell line)”. In addition, the “SAM/MTA Ratio” value on PRMT5 [1] (setting [4]) was “A (a Ki ratio greater than or equal to 10 fold between the Ki in the presence of SAM and the Ki in the presence of MTA)”.

Regarding `Cc1ncoc1COc1ccc2c(c1C)CCN(C[C@@H](O)CNC(=O)c1cc(NC3COC3)nc(N3CCOCC3)n1)C2` [Compound 423, N-[(2S)-2-hydroxy-3-{5-methyl-6-[(4-methyl-1,3-oxazol-5-yl)methoxy]-1,2,3,4-tetrahydroisoquinolin-2-yl}propyl]-2-(morpholin-4-yl)-6-[(oxetan-3-yl)amino]pyrimidine-4-carboxamide], the 50% inhibitory concentration (IC50) with HAP1 MTAP-deleted was 1000 to 10000 nM; in the assay on HAP1 MTAP-intact, at least 10000 nM; on PRMT5 [1], 50 to 500 nM; on PRMT5 [2] (read-out: No Co-factor IC50), at least 5000 nM; on PRMT5 [3], 500 to 5000 nM. Besides, the “MTAP Intact/Deleted Ratio” value in the assay on HAP1 MTAP-deleted was “C* (an IC50 ratio of less than 3 fold between the IC50 in the HAP1 MTAP-intact cell line and the HAP1 MTAP-deleted cell line)”. Further, the “SAM/MTA Ratio” value on PRMT5 [1] (setting [4]) was “A (a Ki ratio greater than or equal to 10 fold between the Ki in the presence of SAM and the Ki in the presence of MTA)”.

Take `Cc1c(OCc2cnco2)ccc2c1CCN(C[C@@H](O)CNC(=O)c1cccc(NC3COC3)c1)C2` [Compound 424, N-[(2S)-2-hydroxy-3-{5-methyl-6-[(1,3-oxazol-5-yl)methoxy]-1,2,3,4-tetrahydroisoquinolin-2-yl}propyl]-3-[(oxetan-3-yl)amino]benzamide]: the 50% inhibitory concentration (IC50) was at least 10000 nM in the assay with HAP1 MTAP-deleted; at least 10000 nM in the assay on HAP1 MTAP-intact; 500 to 5000 nM at PRMT5 [1]; at least 5000 nM on PRMT5 [2] (read-out: No Co-factor IC50); 500 to 5000 nM on PRMT5 [3]. Also, in the assay on HAP1 MTAP-deleted, the “MTAP Intact/Deleted Ratio” value is “C* (an IC50 ratio of less than 3 fold between the IC50 in the HAP1 MTAP-intact cell line and the HAP1 MTAP-deleted cell line)”. Moreover, on PRMT5 [1] (setting [4]), the “SAM/MTA Ratio” value is “A (a Ki ratio greater than or equal to 10 fold between the Ki in the presence of SAM and the Ki in the presence of MTA)”.

For `O=C(NC[C@H](O)CN1CCc2c(ccc(OCc3cnco3)c2Cl)C1)c1ccnc(NC2CCC(F)(F)CC2)c1` [Compound 425, (S)—N-(3-(5-chloro-6-(oxazol-5-ylmethoxy)-3,4-dihydroisoquinolin-2(1H)-yl)-2-hydroxypropyl)-2-((4N-difluorocyclohexyl)amino)isonicotinamide], the IC50 in the assay on HAP1 MTAP-deleted was at least 10000 nM; with HAP1 MTAP-intact, at least 10000 nM; at PRMT5 [1], 50 to 500 nM; at PRMT5 [2] (read-out: No Co-factor IC50) it was at least 5000 nM; at PRMT5 [3], 50 to 500 nM. The “MTAP Intact/Deleted Ratio” value with HAP1 MTAP-deleted is “C* (an IC50 ratio of less than 3 fold between the IC50 in the HAP1 MTAP-intact cell line and the HAP1 MTAP-deleted cell line)”. Further, the “SAM/MTA Ratio” value on PRMT5 [1] (setting [4]) is “A (a Ki ratio greater than or equal to 10 fold between the Ki in the presence of SAM and the Ki in the presence of MTA)”.

On to `CCC(=O)N1CC(Nc2cc(C(=O)NC[C@H](O)CN3CCc4c(ccc(OCc5cnco5)c4Cl)C3)ccn2)C1` [Compound 426, (S)—N-(3-(5-chloro-6-(oxazol-5-ylmethoxy)-3,4-dihydroisoquinolin-2(1H)-yl)-2-hydroxypropyl)-2-((1-propionylazetidin-3-yl)amino)isonicotinamide], for which the IC50 in the assay on HAP1 MTAP-deleted was at least 10000 nM; in the assay with HAP1 MTAP-intact, at least 10000 nM; at PRMT5 [1] it was 50 to 500 nM; at PRMT5 [2], 500 to 5000 nM; on PRMT5 [3], 50 to 500 nM. Moreover, the “MTAP Intact/Deleted Ratio” value in the assay with HAP1 MTAP-deleted was “C* (an IC50 ratio of less than 3 fold between the IC50 in the HAP1 MTAP-intact cell line and the HAP1 MTAP-deleted cell line)”. For the same compound, the “SAM/MTA Ratio” value at PRMT5 [1] (setting [5]) is “A (a Ki ratio greater than or equal to 10 fold between the Ki in the presence of SAM and the Ki in the presence of MTA)”.

As for `Cc1c(OCc2cnco2)ccc2c1CCN(C[C@@H](O)CNC(=O)c1ccnc(NC3CCN(C(=O)C(C)C)CC3)c1)C2` [Compound 427], the 50% inhibitory concentration (IC50) was 1000 to 10000 nM in the assay with HAP1 MTAP-deleted; at least 10000 nM with HAP1 MTAP-intact; 50 to 500 nM on PRMT5 [1]; 500 to 5000 nM against PRMT5 [2]; 50 to 500 nM on PRMT5 [3]. Moreover, the “MTAP Intact/Deleted Ratio” value in the assay on HAP1 MTAP-deleted is “B* (an IC50 ratio greater than or equal to 3 fold but lower than 10 fold between the IC50 in the HAP1 MTAP-intact cell line and the HAP1 MTAP-deleted cell line)”. For the same compound, the “SAM/MTA Ratio” value on PRMT5 [1] (setting [5]) was “A (a Ki ratio greater than or equal to 10 fold between the Ki in the presence of SAM and the Ki in the presence of MTA)”.

Turning to `Cc1ncoc1COc1ccc2c(c1)CCN(C[C@@H](O)CNC(=O)c1cc(NC3CCC3)nc(N3CCN(C(C)C)CC3)c1)C2` [Compound 428, 2-(cyclobutylamino)-N-[(2S)-2-hydroxy-3-{6-[(4-methyl-1,3-oxazol-5-yl)methoxy]-1,2,3,4-tetrahydroisoquinolin-2-yl}propyl]-6-[4-(propan-2-yl)piperazin-1-yl]pyridine-4-carboxamide], the IC50 in the assay with HAP1 MTAP-deleted was at least 10000 nM; in the assay with HAP1 MTAP-intact, at least 10000 nM; on PRMT5 [1] it was below 50 nM; against PRMT5 [2], 500 to 5000 nM; at PRMT5 [3], 50 to 500 nM. In addition, the “MTAP Intact/Deleted Ratio” value in the assay on HAP1 MTAP-deleted was “C* (an IC50 ratio of less than 3 fold between the IC50 in the HAP1 MTAP-intact cell line and the HAP1 MTAP-deleted cell line)”. Besides, the “SAM/MTA Ratio” value at PRMT5 [1] (setting [5]) is “A (a Ki ratio greater than or equal to 10 fold between the Ki in the presence of SAM and the Ki in the presence of MTA)”.

For the origin of these results see US11986471B2, “Compounds and methods of use” (Tango Therapeutics, Inc., priority 2018, dated 2024).
